Source: patent US6734182B2, “Aryl sulfonamides and sulfamide derivatives and uses thereof” (Synaptic Pharmaceutical Corporation, priority 1995, dated 2004)

What was measured:
[1] = tested on: food intake in food-deprived rats; experiment: Food intake in food-deprived rats (24 h food deprivation); format: in vivo, rat; parameters: concentration or dose not given beside the values; conditions: rats after 24 h food deprivation; two hours after administration of test compound
human Y1 receptor = target: T1, human Y1 receptor (Homo sapiens, UniProt P25929); experiment: Radioligand binding to cloned human Y1 receptor (125I-PYY); conditions: cloned human Y1, stably transfected cells, read-out: Binding Affinity (K1 (nM) vs. 125I-PYY) Human Receptor Y1
T1 construct: expressed in transfected cells
T1 sequence (P25929 1-384): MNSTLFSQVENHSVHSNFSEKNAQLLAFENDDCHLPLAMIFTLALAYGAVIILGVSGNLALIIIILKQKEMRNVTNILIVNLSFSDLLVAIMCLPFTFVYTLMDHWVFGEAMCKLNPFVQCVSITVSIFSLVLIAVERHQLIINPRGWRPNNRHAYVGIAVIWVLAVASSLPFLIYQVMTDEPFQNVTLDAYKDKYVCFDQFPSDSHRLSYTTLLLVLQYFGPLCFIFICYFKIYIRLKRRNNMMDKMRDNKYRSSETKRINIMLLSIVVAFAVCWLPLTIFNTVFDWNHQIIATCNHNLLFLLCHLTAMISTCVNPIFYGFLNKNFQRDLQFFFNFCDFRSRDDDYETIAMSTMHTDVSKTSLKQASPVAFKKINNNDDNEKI
Protocol: (§6) Membranes were harvested from COS-7 cells 48 hours after transient transfection. […] Large particles and debris were cleared by low speed centrifugation (200 x g, 5 min, 4° C.). […] Membranes were held on ice for up to one hour and used fresh, or flash-frozen and stored in liquid nitrogen.
(§7) Incubations were terminated by filtration over Whatman GF/C filters (pre-coated with 1% polyethyleneimine and air-dried before use), followed by washing with 5 mL of ice-cold binding buffer.

human Y4 receptor = target: T2, human Y4 receptor (Homo sapiens, UniProt P50391); experiment: Radioligand binding to cloned human Y4 receptor (125I-PYY); conditions: cloned human Y4, stably transfected cells, read-out: Binding Affinity (K1 (nM) vs. 125I-PYY) Human Receptor Y4
T2 construct: expressed in transfected cells
T2 sequence (P50391 whole entry): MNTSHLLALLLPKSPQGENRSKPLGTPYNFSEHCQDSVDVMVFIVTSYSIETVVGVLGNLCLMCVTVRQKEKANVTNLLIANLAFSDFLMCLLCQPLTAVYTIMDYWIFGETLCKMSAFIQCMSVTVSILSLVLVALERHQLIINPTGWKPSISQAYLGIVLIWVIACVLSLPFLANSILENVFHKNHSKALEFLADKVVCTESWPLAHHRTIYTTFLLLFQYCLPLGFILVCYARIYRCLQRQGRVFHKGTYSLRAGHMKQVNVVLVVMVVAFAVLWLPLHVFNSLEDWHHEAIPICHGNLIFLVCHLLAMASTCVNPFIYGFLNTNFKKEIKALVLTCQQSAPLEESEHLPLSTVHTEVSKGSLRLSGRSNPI
Protocol: (§1) Human Y1, human Y2, and rat Y5 receptors were co-transfected with a G-418 resistant gene into the human embryonic kidney 293 cell line by a calcium phosphate transfection method (Cullen, 1987). Stably transfected cells were selected with G-418. Human Y4 and human Y5 receptors were similarly transfected into mouse fibroblast LM(tk−) cells and NIH-3T3 cells.
(§2) Binding of the compounds of the present invention to the human Y1, Y2, Y4 and Y5 receptors was evaluated using stably transfected 293 or LM(tk−) cells as described above. Stably transfected cell lines which may be used for binding assays include, for example, for the human Y1 receptor, 293-hY1-5 (deposited Jun. 4, 1996, under ATCC Accession No. CRL-12121), for the human Y2 receptor, 293-hY2-10 (deposited Jan. 27, 1994, under ATCC Accession No. CRL-11537), for the human Y4 receptor, L-hY4-3 (deposited Jan. 11, 1995, under ATCC Accession No. CRL-11779), and for the human Y5 receptor, L-hY5-7 (deposited Nov. 15, 1995, under ATCC Accession No. CRL-11995).
(§3) Membranes were harvested from COS-7 cells 48 hours after transient transfection. Adherent cells were washed twice in ice-cold phosphate buffered saline (138 mM NaCl, 8.1 mM Na2HPO4, 2.5 mM KCl, […], 0.9 mM CaCl2, 0.5 mM MgCl2, pH 7.4) and lysed by sonication in ice-cold sonication buffer (20 mM Tris-HCl, 5 mM EDTA, pH 7.7). Large particles and debris were cleared by low speed centrifugation (200 x g, 5 min, 4° C.). Membranes were collected from the supernatant fraction by centrifugation (32,000 x g, 18 min, […] ), washed with ice-cold hypotonic buffer, and collected again by centrifugation (32,000 x g, 18 min, 4° C.). […] Protein concentration was measured by the Bradford method (Bradford, 1976) using Bio-Rad Reagent, with bovine serum albumin as a standard. Membranes were held on ice for up to one hour and used fresh, or flash-frozen and stored in liquid nitrogen.
(§4) Membranes were prepared similarly from 293, LM(tk−), and NIH-3T3 cells. To prepare membranes from baculovirus infected cells, 2×10^7 Sf21 cells were grown in 150 mm tissue culture dishes and infected with a high-titer stock of hY5BB3. Cells were incubated for 2-4 days at 27° C., no CO2 be fore harvesting and membrane preparation as described above.

human Y2 receptor = target: T3, human Y2 receptor (Homo sapiens, UniProt P49146); experiment: Radioligand binding to cloned human Y2 receptor (125I-PYY); conditions: cloned human Y2, stably transfected cells, read-out: Binding Affinity (K1 (nM) vs. 125I-PYY) Human Receptor Y2
T3 construct: expressed in transfected cells
T3 sequence (P49146 1-381): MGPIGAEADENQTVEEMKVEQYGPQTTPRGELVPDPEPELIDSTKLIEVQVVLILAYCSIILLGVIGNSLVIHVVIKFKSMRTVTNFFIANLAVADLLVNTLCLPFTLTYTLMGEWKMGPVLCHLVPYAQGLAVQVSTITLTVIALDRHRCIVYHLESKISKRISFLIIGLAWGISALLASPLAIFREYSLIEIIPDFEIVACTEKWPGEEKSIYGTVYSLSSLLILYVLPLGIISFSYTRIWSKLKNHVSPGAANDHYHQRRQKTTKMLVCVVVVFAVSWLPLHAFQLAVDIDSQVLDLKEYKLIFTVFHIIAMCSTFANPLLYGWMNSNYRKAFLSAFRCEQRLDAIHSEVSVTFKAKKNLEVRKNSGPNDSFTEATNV
Protocol: as §1, §2, §3, §4

human Y5 receptor = target: T4, human Y5 receptor (Homo sapiens, UniProt Q15761); experiment: Radioligand binding to cloned human Y5 receptor (125I-PYY); conditions: cloned human Y5, stably transfected cells, read-out: Binding Affinity (K1 (nM) vs. 125I-PYY) Human Receptor Y5
T4 construct: expressed in transfected cells
T4 sequence (Q15761 1-445): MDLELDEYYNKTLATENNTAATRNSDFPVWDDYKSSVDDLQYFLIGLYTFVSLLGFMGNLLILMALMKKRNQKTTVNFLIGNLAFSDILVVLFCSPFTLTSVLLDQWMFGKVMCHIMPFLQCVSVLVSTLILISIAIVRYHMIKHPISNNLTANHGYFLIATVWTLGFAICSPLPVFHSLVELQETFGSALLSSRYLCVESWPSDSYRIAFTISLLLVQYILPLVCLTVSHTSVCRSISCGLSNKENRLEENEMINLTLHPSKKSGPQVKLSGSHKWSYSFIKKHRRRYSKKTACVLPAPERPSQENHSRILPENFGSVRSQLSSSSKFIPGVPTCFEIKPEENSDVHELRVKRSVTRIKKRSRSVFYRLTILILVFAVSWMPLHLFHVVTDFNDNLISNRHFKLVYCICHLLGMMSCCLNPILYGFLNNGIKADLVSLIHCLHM
Protocol: as §6, §7

cloned human Y5 receptor = target: T5, cloned human Y5 receptor (Homo sapiens, UniProt Q15761); experiment: Functional assay: block of NPY-induced inhibition of cAMP accumulation in forskolin-stimulated LM(tk-) cells (radioimmunoassay of cAMP); format: cell-based; conditions: antagonism of NPY-induced inhibition of cAMP accumulation, forskolin-stimulated LM(tk-) cells with human Y5; at least three experiments
T5 construct: expressed in transfected cells
T5 sequence (Q15761 1-445): T4 sequence (Q15761 1-445)
Protocol: LM(tk−) cells stably transfected with the human Y5 receptor were routinely converted from an adherent monolayer to a viable suspension. […] The cell suspension was maintained in a shaking incubator at 37° C., 5% CO2 for 24 hours.
Stably transfected cells were seeded into 96-well microtiter plates and cultured until confluent.
The ability of the compounds to antagonize the Y-type receptors is reported as the Kb. […] Results shown are representative of at least three indepenent experiments.

[2] = tested on: NPY-induced feeding behavior in satiated rats; experiment: NPY-induced food intake in satiated rats; format: in vivo, rat; conditions: compound 10 mg/kg i.p., then 300 pmole NPY i.c.v., 4 hours after NPY, in g (unit assumed)
Protocol: For these determinations food intake maybe measured in normal satiated rats after intracerebroventricular application (i.c.v.) of NPY in the presence or absence of the test compound. Male Sprague Dawley rats ciba-Geigy AG, Sisseln, Switzerland weighing between 180 g and 220 g are used for all experiments. The rats are individually housed in stainless steel cages and maintained on an 11:13 h light-dark cycle (lights off at 18:00 h) at a controlled temperature of 21-23° C. at all times. Water and food (NAFAG lab chow pellets, NAFAG, Gossau, Switzerland) are available ad libidum.
Rats under pentobarbital anesthesia are stereotaxically implanted with a stainless steel guide cannula targeted at the right lateral ventricle. Stereotaxic coordinates, with the incisor bar set −2.0 mm below interaural line, are: −0.8 mm anterior and +1.3 mm lateral to bregma. The guide cannula is placed on the dura. […]
Food intake may be measured by placing preweighed pellets into the cages at the time of NPY injection. […] The food intake of animals treated with test compound may be calculated as a percentage of the food intake of control animals, i.e., animals treated with vehicle. Alternatively, food intake for a group of animals subjected to the same experimental condition may be expressed as the mean ±S.E.M. Statistical analysis is performed by analysis of variance using the Student-Newman-Keuls test. […]

human 5HT1F receptor = target: T6, human 5HT1F receptor (Homo sapiens, UniProt P30939); experiment: Binding to human 5HT1F receptor ([3H]serotonin); conditions: cloned human receptor; read-out: Receptor (pKi) 5HT1F (converted)
T6 construct: expressed in transfected cells
T6 sequence (P30939 1-366): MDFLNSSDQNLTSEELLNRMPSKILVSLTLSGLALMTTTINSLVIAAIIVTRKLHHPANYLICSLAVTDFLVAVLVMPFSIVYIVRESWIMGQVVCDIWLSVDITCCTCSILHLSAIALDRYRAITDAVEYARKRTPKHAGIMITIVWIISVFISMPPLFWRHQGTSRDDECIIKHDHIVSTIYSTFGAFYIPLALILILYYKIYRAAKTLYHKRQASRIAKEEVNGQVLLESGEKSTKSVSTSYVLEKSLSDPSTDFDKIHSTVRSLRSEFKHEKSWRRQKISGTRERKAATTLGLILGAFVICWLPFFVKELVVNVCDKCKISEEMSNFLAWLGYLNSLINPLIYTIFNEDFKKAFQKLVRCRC
Protocol: (§5) 5HT1Dα, 5HT1Dβ, 5HT1E, 5HT1F Receptors: LM(tk−) clonal cell lines stably transfected with the genes encoding each of these 5HT receptor subtypes were prepared as described above. The cell line for the 5HT1Dα, receptor, designated as Ltk−8-30-84, was deposited on Apr. 17, 1990, and accorded ATCC Accession No. CRL 10421. The cell for the 5HT1Dβ receptor, designated as Ltk−11, was deposited on Apr. 17, 1990, and accorded ATCC Accession No. CRL 10422. The cell line for the 5HT1E receptor, designated 5 HT1E-7, was deposited on Nov. 6, 1991, and accorded ATCC Accession No. CRL 10913. The cell line for the 5HT1F receptor, designated L-5-HT1F, was deposited on Dec. 27, 1991, and accorded ATCC Accession No. ATCC 10957. Membrane preparations comprising these receptors were prepared as described below, and suspended in 50 mM Tris-HCl buffer (pH 7.4 at 37° C.) containing 10 mM MgCl2, 0.2 mM EDTA, 10 μM pargyline, and 0.1% ascorbate. The binding of compounds was determined in competition binding assays by incubation for 30 minutes at 37° C. in the presence of 5 nM [^3H) serotonin. Nonspecific binding was determined in the presence of 10 μM serotonin. The bound radioligand was separated by filtration through GF/B filters using a cell harvester.

human 5HT1E receptor = target: T7, human 5HT1E receptor (Homo sapiens, UniProt P28566); experiment: Binding to human 5HT1E receptor ([3H]serotonin); conditions: cloned human receptor; read-out: Receptor (pKi) 5HT1E (converted)
T7 construct: expressed in transfected cells
T7 sequence (P28566 whole entry): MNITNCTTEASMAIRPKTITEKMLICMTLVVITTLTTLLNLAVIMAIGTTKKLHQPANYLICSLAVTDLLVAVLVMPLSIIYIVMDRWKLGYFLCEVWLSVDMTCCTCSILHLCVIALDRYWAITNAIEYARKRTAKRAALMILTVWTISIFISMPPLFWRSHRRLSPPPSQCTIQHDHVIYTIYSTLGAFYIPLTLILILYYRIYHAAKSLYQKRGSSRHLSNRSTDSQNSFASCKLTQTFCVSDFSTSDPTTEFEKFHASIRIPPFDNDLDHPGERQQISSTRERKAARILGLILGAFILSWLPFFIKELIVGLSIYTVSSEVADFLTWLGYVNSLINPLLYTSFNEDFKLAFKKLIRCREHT
Protocol: as §5

With `Cl.Cl.O=[N+]([O-])c1ccccc1S(=O)(=O)NCC1CCC(CNCc2ccc3ccccc3n2)CC1` (centres unmarked) [Example 44] the “Two-hour food intake, percentage of intake compared to control rats, Mean (%)” value (“Two-hour food intake, percentage of intake … (%)” below) [1] was 73%, the Ki (human Y1 receptor) was 23700 nM and the Ki (human Y4 receptor) was 19300 nM. For the same molecule, the Ki (human Y2 receptor) was 58200 nM.

In the case of `Cl.O=S(=O)(NCC1CCC(CNCc2ccc3ccccc3c2)CC1)c1ccccc1C(F)(F)F` (centres unmarked) [Example 38], the “Two-hour food intake, percentage of intake … (%)” value [1] is reported as 80%, the Ki (human Y1 receptor) is reported as 13000 nM and the Ki (human Y4 receptor) is reported as 18500 nM. The Ki (human Y5 receptor) was 9.8 nM, the Ki (human Y2 receptor) was 1610 nM and the Kb (cloned human Y5 receptor) was 0.016 µM.

For `Cl.Cl.O=[N+]([O-])c1ccccc1S(=O)(=O)NCC1CCC(CNCc2ccnc3ccccc23)CC1` (centres unmarked) [Example 45], the “Two-hour food intake, percentage of intake … (%)” value [1] was 84%, the Ki (human Y1 receptor) was 48700 nM and the Ki (human Y4 receptor) was 63100 nM. The Ki (human Y5 receptor) was 28 nM, the Ki (human Y2 receptor) was 5280 nM and the Kb (cloned human Y5 receptor) was 0.049 µM.

For `Cl.O=S(=O)(NCC1CCC(CNCc2cccc3ccccc23)CC1)c1ccccc1C(F)(F)F` (centres unmarked) [Example 37], the “Two-hour food intake, percentage of intake … (%)” value [1] was 58%, the Ki (human Y1 receptor) was 14500 nM and the Ki (human Y4 receptor) was 21500 nM. For the same molecule, the Ki (human Y5 receptor) was 26 nM, the Ki (human Y2 receptor) was 617 nM and the Kb (cloned human Y5 receptor) was 0.038 µM.

`Cl.O=S(=O)(NCC1CCC(CNCC2CCc3ccccc3C2)CC1)c1ccc2ccccc2c1` (centres unmarked) [Example 31] was tested, and the “Two-hour food intake, percentage of intake … (%)” value [1] was 27% and the “NPY-induced cumulative food intake (NPY + compound), mean ± S.E.M.” value [2] was 3.8 ± 0.4.

In the case of `O=S(=O)(NC[C@H]1CC[C@H](CNC(CO)Cc2ccc(Cl)cc2)CC1)c1cccc2ccccc12` (relative stereo) [Example 77, Naphthalene-1-sulfonic Acid trans-(4-{[2-(4-Chloro-phenyl)-1-hydroxymethyl-ethylamino]-methyl}-cyclohexylmethyl)-amide], the “Two-hour food intake, percentage of intake … (%)” value [1] is reported as 32%, the Ki (human Y4 receptor) is reported as 13100 nM and the Ki (human Y2 receptor) is reported as 851 nM. For the same molecule, the Ki (human 5HT1F receptor) was at least 5.01 µM and the Ki (human 5HT1E receptor) was at least 5.01 µM.
